Measured values from paper PMC11605291 (Frontiers in Pharmacology, 2024).

Key:
[1] = Metabolite profiling and identification in plasma, urine and feces (LC/RAM/MS); assay type: in vivo, human; conditions: for Plasma %AUC (percentage of total plasma radioactivity): AUC-pooled 0–72 h plasma; for Plasma %AUC (percentage of total plasma radioactivity) / Urine %Dose / Feces %Dose: mean of 6 subjects; for Urine %Dose: pooled 0–72 h urine, total in urine 37.15%; for Feces %Dose: pooled 0–168 h feces, total in feces 62.08%
Procedure: The plasma samples from six subjects were pooled individually according to the AUC method to obtain 6 plasma samples of 0–72 h ([Hop et al., 1998]). A portion of the proportionally mixed plasma sample was taken and added to a certain volume of acetonitrile (3×, v/v) for extraction, vortexed for 1 min, shaken for 10 min and then stored in a refrigerator at 4°C for 30 min, the mixture was removed and vortexed for 2 min and then centrifuged for 10 min at 10,000×g and 4°C. The residue from the extraction was firstly ultrasonically suspended using 1 mL of ultrapure water and then extracted using methanol (2×, v/v) and repeated twice. The organic solvent extracts were combined, blown dry with nitrogen and reconstituted with acetonitrile: ultrapure water (1:1), the reconstituted solution was centrifuged at 4°C and 10,000×g for 10 min, and the supernatant was used for radio-metabolite profiling.
The radioactivity in the organic solvent extract and the reconstitution solution was determined by LSC. The solid residue after extraction was dissolved by heating with 1N KOH solution and added to the scintillation solution to determine its radioactivity. All the final data were used to examine the recovery of radioactivity during plasma extraction.
The urine samples from the six subjects were mixed in the same volume percentage to obtain six 0–72 h urine samples. A portion of the proportionally mixed urine sample was centrifuged for 10 min at approximately 10,000×g and 4°C. Two samples were taken before and after centrifugation, and the radioactivity of the samples was determined by LSC, and the data obtained were used to calculate the recovery of radioactivity during the centrifugation process. A portion of the supernatant after centrifugation was used directly for radio-metabolite profiling.
The fecal samples from the six subjects were mixed with the same weight percentage to obtain 6 fecal homogenate samples of 0–168 h. A portion of the proportionally mixed fecal homogenate samples was taken and extracted by adding a volume of acetonitrile (3×, v/v), vortexed for 5 min at room temperature, sonicated for 5 min and then centrifuged for 10 min at 10,000 × g and 4°C. The residue of the extracted material was firstly sonicated and mixed using about 1 mL of ultrapure water before extracted using methanol (2×, v/v). The process was repeated twice and the organic extracts were combined, blown dry using nitrogen and then reconstituted with dimethyl sulfoxide: acetonitrile: ultrapure water (3:2:5), the reconstituted solution was centrifuged at 10,000×g at 4°C for 10 min and the supernatant was used for radio-metabolite profiling. […] LSC was used to determine the intensity of radioactivity contained in the organic solvent extract and in the reconstituted solution. The solid residue after extraction is fully combusted by an oxidative combustor, and the [^14C]carbon dioxide produced by combustion of the sample is captured with a scintillation solution to determine its radioactivity intensity. All final data were used to examine the extraction and recovery of radioactivity from fecal homogenate samples.
A high performance liquid chromatograph coupled with an online isotope detector and mass spectrometry (LC/RAM/MS) was used for the identification of radioactive metabolite profiles. The HPLC method consisted of an HPLC system (Shimadzu UFLC-20A-Lite), a chromatographic column (ACE Excel 3 C18, 150 × 4.6 mm id), mobile phase A (0.4% aqueous formic acid, pH = 3.2 adjusted with ammonia) and mobile phase B (acetonitrile) at a flow rate of 0.7 mL/min. The gradient was 0% B for the 0–5 min, 20% B from 15 min to 30 min, 22% B from 32 to 40 min, and 70%–100% B from 60 to 72 min. The column temperature was 28°C. […]

[2] = system: cDNA-expressed recombinant human cytochrome P450s and silensomes as well as human liver microsomes with selective chemical CYP inhibitors; set-up: method as in unpublished data; conditions: conducted in Hutch-Med DMPK department ref unpublished data; cited from earlier work

| SMILES | F: %Dose in feces (Figure 4) [1] | P: %AUC in plasma (Figure 4) [1] | U: %Dose in urine (Figure 4) [1] | Plasma %AUC (percentage of total plasma radioactivity) [1] | Urine %Dose [1] | Feces %Dose [1] | enzyme involved in the formation of the metabolite from amdizalisib [2] | %Dose in pooled feces ([1]; subject 01001) [%Dose] | %Dose in pooled feces ([1]; subject 01002) [%Dose] | %Dose in pooled feces ([1]; subject 01003) [%Dose] | %AUC in AUC-pooled plasma ([1]; subject 01004) [%AUC] | %Dose in pooled feces ([1]; subject 01004) [%Dose] | %AUC in AUC-pooled plasma ([1]; subject 01005) [%AUC] | %Dose in pooled feces ([1]; subject 01005) [%Dose] | %AUC in AUC-pooled plasma ([1]; subject 01006) [%AUC] | %Dose in pooled feces ([1]; subject 01006) [%Dose] | other results |
| --- | --- | --- | --- | --- | --- | --- | --- | --- | --- | --- | --- | --- | --- | --- | --- | --- | --- |
| CC(=O)c1cc2ncc(Cl)n2nc1-c1ccccc1 [M271] | + | + | + | detected by mass spectrometry, but could not be quantified and + | detected by mass spectrometry, but could not be quantified and + | detected by mass spectrometry, but could not be quantified and + |  |  |  |  |  |  |  |  |  |  |  |
| C[C@H](Nc1ncnc(N)c1C#N)c1cc2ncc(Cl)n2nc1-c1ccc(O)cc1 [M406-1] | 5.06% | 0.12% |  | 0.12 %AUC |  | 5.06 %Dose | formed primarily by CYP2C9 | 4.78 | 5.18 | 5.65 | 0.16 | 6.15 | 0.26 | 4.03 | 0.27 | 4.54 |  |
| C[C@H](Nc1nc(O)nc(N)c1C#N)c1cc2ncc(Cl)n2nc1-c1ccccc1 [M406-2] | 11.30% | 20.91% | 8.08% | 20.91 %AUC | 8.08 %Dose | 11.30 %Dose | aldehyde oxidase | 9.93 | 13.05 | 10.17 | 16.67 | 5.32 | 20.09 | 14.97 | 36.04 | 14.33 | contribution to amdizalisib metabolism ([1]; estimated from the metabolite amounts in excreta): around 20%; %AUC in AUC-pooled plasma ([1]; subject 01001): 16.31 %AUC; %Dose in pooled urine ([1]; subject 01001): 8.77 %Dose; %AUC in AUC-pooled plasma ([1]; subject 01002): 16.12 %AUC; %Dose in pooled urine ([1]; subject 01002): 9.03 %Dose; %AUC in AUC-pooled plasma ([1]; subject 01003): 20.20 %AUC; %Dose in pooled urine ([1]; subject 01003): 8.92 %Dose; %Dose in pooled urine ([1]; subject 01004): 7.29 %Dose; %Dose in pooled urine ([1]; subject 01005): 6.50 %Dose; %Dose in pooled urine ([1]; subject 01006): 7.98 %Dose |
| C[C@H](Nc1ncnc(N)c1C(N)=O)c1cc2ncc(Cl)n2nc1-c1ccccc1 [M408] | 1.04% | + | + | detected by mass spectrometry, but could not be quantified and + | detected by mass spectrometry, but could not be quantified and + | 1.04 %Dose |  | 0.40 | 0.91 | 2.11 |  | 0.69 |  | 1.53 |  | 0.60 |  |
